# Data from patent US20130281544A1, “HEPATOPROTECTANT ACTIVITY OF GARCINOL” (priority 2010, published 2013).
# System: paracetamol induced liver damage in rats
# Assay: Serum enzymes ALT, AST, ALP in paracetamol (APAP) induced liver damage
# Type: in vivo, Male Wistar Rats
# Details: for ALP percent change / ALT percent change / AST percent change / ALP / ALT / AST: serum; for ALP / ALT / AST: Mean ± SE
# Method: Doses of Garcinol (GC) used for the study: 1.25, 2.5, 5, 10 mg/kg p.o.
# Standard drug: Silymarin (50 mg/kg) p.o.
# Experimental animals orally received paracetamol (400 mg/kg body weight) for seven days. The animals from drug treated group received 400 mg/kg body weight of paracetamol dissolved in water orally along with graded doses of test drug Garcinol for seven days. The standard group animals received 50 mg/kg body weight of standard drug silymarin and 400 mg/kg body weight of paracetamol for seven days and served as standard control. [N. Kanchana and A. Mohamed Sadiq, Hepatoprotective effect of Plumbago zeylanica on paracetamol induced liver toxicity in rats, Int J Pharm Pharm Sci, Vol 3, Issue 1, 151-154 (2011)].
# Blood was collected from the retro-orbital plexus of experimental animals and no anti-coagulant was added. Blood was made to stand at room temperature for 1 hour. It was then centrifuged and clear serum was separated. The serum was then stored for analysis. Reference: (Magari et al., 2004).
# (ASPARTATE AMINOTRANSFERASE and ALANINE AMINOTRANSFERASE), Reference: Ritman S, Frankel S, (1957). A colorimeteric method for the determination of serum glutamic oxaloacetic and glutamic pyruvic transaminases. American Journal of Clinical Pathology; 28: 56-63.
# 0.2 ml of serum, collected from test and control samples, was mixed with 1.0 ml of buffer solution and incubated for 60 min at 37° C. in a water bath. After the addition of 1.0 ml of chromogen solution, the samples were kept at room temperature for 20 minutes for the reaction to proceed and 10 ml NaOH was added. The optical density was red at 546 nm after 5 min. To the blank, serum was added after the addition of chromogen solution.
# (ALKALINE PHOSPHATASE), Reference: Klaus Walter and Schutt C. (1974). Acid and alkaline phosphatase in serum. In: Methods of Enzymatic Analysis. Eds. Hans Ulrich Bergmeyer, Verlag ChemieWeinheim, Academic press, Inc. New York, 2nd Edition, Vol. 2, pp. 855-64.
# Alkaline phosphatase activity measurement is based on the ability of the enzyme to hydrolyze p-nitrophenol phosphate under alkaline conditions. The cleaved product p-nitrophenol is yellow in alkaline solution and is measured at 400-420 nm (Klaus and Schutt, 1974). 2.0 ml of buffered substrate was taken in the tubes ‘Test’ ‘Control’ and ‘Blank’ followed by addition of serum and distilled water (0.1 ml) in ‘Test’ and ‘Blank’ respectively and incubated in a water bath for 30 minutes at 25° C. After incubation sodium hydroxide was added (0.25 N, 2 ml) to all the tubes, which was followed by serum (0.1 ml) to the tubes marked ‘Control’. The yellow colour formed was measured spectrophotometrically against blank at 410 nm. […]
compound,measurement,setting,value
C=C(C)[C@@H](CC=C(C)C)C[C@@]12C[C@@H](CC=C(C)C)C(C)(C)[C@@](CC=C(C)C)(C(=O)C(C(=O)c3ccc(O)c(O)c3)=C1O)C2=O [Garcinol],Average Protection,1.25 mg/kg p.o.,13.06%
same,Average Protection,2.50 mg/kg p.o.,21.51%
same,Average Protection,5.00 mg/kg p.o.,36.31%
same,Average Protection,10.00 mg/kg p.o.,33.22%
same,ALP percent change,1.25 mg/kg p.o.,(8.21) %
same,ALT percent change,1.25 mg/kg p.o.,(21.69) %
same,AST percent change,1.25 mg/kg p.o.,(9.30) %
same,ALP,1.25 mg/kg p.o.,37.21 ± 3.44 μmol min/lt
same,ALT,1.25 mg/kg p.o.,862.97 ± 53.38 μmol min/lt
same,AST,1.25 mg/kg p.o.,761.61 ± 43.96 μmol min/lt
same,ALP percent change,2.50 mg/kg p.o.,(15.44) %
same,ALT percent change,2.50 mg/kg p.o.,(26.62) %
same,AST percent change,2.50 mg/kg p.o.,(22.49) %
same,ALP,2.50 mg/kg p.o.,34.28 ± 1.98 μmol min/lt
same,ALT,2.50 mg/kg p.o.,808.64 ± 38.55 μmol min/lt
same,AST,2.50 mg/kg p.o.,650.88 ± 35.84 μmol min/lt
same,ALP percent change,5.00 mg/kg p.o.,(24.17) %
same,ALT percent change,5.00 mg/kg p.o.,(39.96) %
same,AST percent change,5.00 mg/kg p.o.,(44.81) %
same,ALP,5.00 mg/kg p.o.,30.74 ± 2.05 μmol min/lt
same,ALT,5.00 mg/kg p.o.,661.67 ± 51.40 μmol min/lt
same,AST,5.00 mg/kg p.o.,463.41 ± 38.56 μmol min/lt
same,ALP percent change,10.00 mg/kg p.o.,(17.11) %
same,ALT percent change,10.00 mg/kg p.o.,(46.44) %
same,AST percent change,10.00 mg/kg p.o.,(36.12) %
same,ALP,10.00 mg/kg p.o.,33.60 ± 1.93 μmol min/lt
same,ALT,10.00 mg/kg p.o.,590.22 ± 50.98 μmol min/lt
same,AST,10.00 mg/kg p.o.,536.39 ± 44.13 μmol min/lt
